From PubChem BioAssay AID330 (DTP/NCI, 2004)
Values joined by “and” are separate entries in the source; they are usually repeats but may differ in a detail not shown here. Equal values may be shown once. Toxic doses and inconclusive results are not listed. Rule for the calls: active = survival T/C of 150% or more; inactive = T/C below 125% in these data.

Test system: P388 leukemia ip, CD2F1 mice, survival T/C
Assay: NCI In Vivo Anticancer Drug Screen. Data for tumor model P388 Leukemia (intraperitoneal) in CD2F1 (CDF1) mice
Conditions: endpoint: median survival time, higher = longer survival
Outline: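 Mice carrying the transplanted tumor received test compound or vehicle. Survival was recorded in each group, and the value is the treated-group measurement divided by that of the vehicle-treated control group.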

Measured: T/C

COc1cc2c[n+](C)c3c4cc5c(cc4ccc3c2cc1OC)OCO5
inactive: dose: 0.5 mg/kg/injection, schedule: Q01DX005 (ip), vehicle: saline 106 % of control | dose: 1.0 mg/kg/injection, schedule: Q01DX005 (ip), vehicle: saline 118 % of control | dose: 1.25 mg/kg/injection, schedule: Q01DX009 (ip), vehicle: DMSO 124 % of control | dose: 2.0 mg/kg/injection, schedule: Q01DX005 (ip), vehicle: saline 115 % of control | dose: 2.0 mg/kg/injection, schedule: Q03HX008 (ip), vehicle: water 109 % of control | dose: 2.0 mg/kg/injection, schedule: Q03HX016 (ip), vehicle: water 121 % of control | dose: 4.0 mg/kg/injection, schedule: Q01DX009 (sc), vehicle: water 97 % of control | dose: 4.0 mg/kg/injection, schedule: Q03HX008 (ip), vehicle: water 114 % of control | dose: 4.0 mg/kg/injection, schedule: Q03HX016 (ip), vehicle: water 119 % of control | dose: 8.0 mg/kg/injection, schedule: Q01DX009 (oral), vehicle: water 102 % of control | dose: 8.0 mg/kg/injection, schedule: Q01DX009 (sc), vehicle: saline with Tween-80 96 % of control | dose: 8.0 mg/kg/injection, schedule: Q01DX009 (sc), vehicle: water 97 % of control | dose: 8.0 mg/kg/injection, schedule: Q03HX008 (ip), vehicle: water 87 % of control | dose: 8.0 mg/kg/injection, schedule: Q03HX016 (ip), vehicle: water 92 % of control | dose: 8.0 mg/kg/injection, schedule: Q04DX003 (ip), vehicle: water 113 % of control | dose: 16.0 mg/kg/injection, schedule: Q01DX001 (ip), vehicle: water 106 % of control | dose: 16.0 mg/kg/injection, schedule: Q01DX001 (oral), vehicle: water 103 % of control | dose: 16.0 mg/kg/injection, schedule: Q01DX001 (sc), vehicle: water 98 % of control | dose: 16.0 mg/kg/injection, schedule: Q01DX009 (oral), vehicle: water 94 % of control | dose: 16.0 mg/kg/injection, schedule: Q01DX009 (sc), vehicle: saline with Tween-80 97 % of control | dose: 16.0 mg/kg/injection, schedule: Q04DX003 (ip), vehicle: water 119 % of control | dose: 16.0 mg/kg/injection, schedule: Q08DX002 (ip), vehicle: water 112 % of control | dose: 25.0 mg/kg/injection, schedule: Q01DX009 (ip), vehicle: saline with Tween-80 114 % of control | dose: 25.0 mg/kg/injection, schedule: Q01DX009 (ip), vehicle: water 100 % of control and 87 % of control | dose: 32.0 mg/kg/injection, schedule: Q01DX001 (ip), vehicle: water 102 % of control | dose: 32.0 mg/kg/injection, schedule: Q01DX001 (oral), vehicle: water 103 % of control | dose: 32.0 mg/kg/injection, schedule: Q01DX001 (sc), vehicle: saline with Tween-80 100 % of control | dose: 32.0 mg/kg/injection, schedule: Q01DX001 (sc), vehicle: water 101 % of control | dose: 32.0 mg/kg/injection, schedule: Q01DX009 (ip), vehicle: saline with Tween-80 100 % of control | dose: 32.0 mg/kg/injection, schedule: Q01DX009 (oral), vehicle: saline with Tween-80 107 % of control | dose: 32.0 mg/kg/injection, schedule: Q01DX009 (oral), vehicle: water 93 % of control | dose: 32.0 mg/kg/injection, schedule: Q01DX009 (sc), vehicle: saline with Tween-80 92 % of control | dose: 32.0 mg/kg/injection, schedule: Q03HX016 (ip), vehicle: saline with Tween-80 100 % of control | dose: 32.0 mg/kg/injection, schedule: Q04DX003 (ip), vehicle: water 119 % of control | dose: 32.0 mg/kg/injection, schedule: Q08DX002 (ip), vehicle: water 113 % of control | dose: 40.0 mg/kg/injection, schedule: Q01DX009 (ip), vehicle: saline 105 % of control and 96 % of control | dose: 64.0 mg/kg/injection, schedule: Q01DX001 (ip), vehicle: water 117 % of control | dose: 64.0 mg/kg/injection, schedule: Q01DX001 (oral), vehicle: water 102 % of control | dose: 64.0 mg/kg/injection, schedule: Q01DX001 (sc), vehicle: saline with Tween-80 98 % of control | dose: 64.0 mg/kg/injection, schedule: Q01DX001 (sc), vehicle: water 95 % of control | dose: 64.0 mg/kg/injection, schedule: Q01DX009 (oral), vehicle: saline with Tween-80 100 % of control | dose: 64.0 mg/kg/injection, schedule: Q01DX009 (oral), vehicle: water 101 % of control | dose: 64.0 mg/kg/injection, schedule: Q01DX009 (sc), vehicle: saline with Tween-80 87 % of control | dose: 64.0 mg/kg/injection, schedule: Q08DX002 (ip), vehicle: water 115 % of control | dose: 120.0 mg/kg/injection, schedule: Q04DX003 (ip), vehicle: distilled water + Tween-80 99 % of control | dose: 128.0 mg/kg/injection, schedule: Q01DX001 (oral), vehicle: water 95 % of control | dose: 128.0 mg/kg/injection, schedule: Q01DX001 (sc), vehicle: saline with Tween-80 97 % of control | dose: 128.0 mg/kg/injection, schedule: Q01DX009 (oral), vehicle: saline with Tween-80 100 % of control | dose: 128.0 mg/kg/injection, schedule: Q01DX009 (oral), vehicle: water 103 % of control | dose: 128.0 mg/kg/injection, schedule: Q01DX009 (sc), vehicle: saline with Tween-80 88 % of control | dose: 128.0 mg/kg/injection, schedule: Q04DX003 (ip), vehicle: other 107 % of control | dose: 200.0 mg/kg/injection, schedule: Q04DX002 (ip), vehicle: Klucel (hydroxypropylcellulose) (HPC) 105 % of control and 122 % of control | dose: 256.0 mg/kg/injection, schedule: Q01DX001 (oral), vehicle: saline with Tween-80 104 % of control | dose: 256.0 mg/kg/injection, schedule: Q01DX001 (sc), vehicle: saline with Tween-80 106 % of control | dose: 256.0 mg/kg/injection, schedule: Q01DX009 (oral), vehicle: saline with Tween-80 100 % of control | dose: 400.0 mg/kg/injection, schedule: Q04DX002 (ip), vehicle: Klucel (hydroxypropylcellulose) (HPC) 87 % of control | dose: 512.0 mg/kg/injection, schedule: Q01DX001 (oral), vehicle: saline with Tween-80 106 % of control | dose: 512.0 mg/kg/injection, schedule: Q01DX001 (sc), vehicle: saline with Tween-80 97 % of control | dose: 512.0 mg/kg/injection, schedule: Q01DX009 (oral), vehicle: saline with Tween-80 97 % of control | dose: 1024.0 mg/kg/injection, schedule: Q01DX001 (oral), vehicle: saline with Tween-80 100 % of control | dose: 2048.0 mg/kg/injection, schedule: Q01DX001 (oral), vehicle: saline with Tween-80 102 % of control
active: dose: 2.0 mg/kg/injection, schedule: Q03HX024 (ip), vehicle: saline with Tween-80 150 % of control | dose: 4.0 mg/kg/injection, schedule: Q01DX009 (ip), vehicle: saline 152 % of control | dose: 5.0 mg/kg/injection, schedule: Q01DX009 (ip), vehicle: DMSO 153 % of control | dose: 8.0 mg/kg/injection, schedule: Q01DX009 (ip), vehicle: saline with Tween-80 166 % of control | dose: 8.0 mg/kg/injection, schedule: Q01DX009 (ip), vehicle: saline 152 % of control | dose: 8.0 mg/kg/injection, schedule: Q03HX016 (ip), vehicle: saline with Tween-80 153 % of control | dose: 8.0 mg/kg/injection, schedule: Q03HX024 (ip), vehicle: saline with Tween-80 165 % of control | dose: 10.0 mg/kg/injection, schedule: Q01DX009 (ip), vehicle: DMSO 153 % of control and 155 % of control | dose: 16.0 mg/kg/injection, schedule: Q01DX009 (ip), vehicle: saline with Tween-80 157 % of control | dose: 16.0 mg/kg/injection, schedule: Q01DX009 (ip), vehicle: saline 171 % of control | dose: 16.0 mg/kg/injection, schedule: Q03HX008 (ip), vehicle: saline with Tween-80 167 % of control | dose: 20.0 mg/kg/injection, schedule: Q01DX009 (ip), vehicle: DMSO 155 % of control and 163 % of control and 190 % of control | dose: 20.0 mg/kg/injection, schedule: Q01DX009 (ip), vehicle: saline 191 % of control | dose: 32.0 mg/kg/injection, schedule: Q01DX005 (ip), vehicle: saline 168 % of control | dose: 32.0 mg/kg/injection, schedule: Q01DX009 (ip), vehicle: water 185 % of control | dose: 32.0 mg/kg/injection, schedule: Q03HX008 (ip), vehicle: saline with Tween-80 161 % of control | dose: 32.0 mg/kg/injection, schedule: Q04DX003 (ip), vehicle: other 154 % of control | dose: 64.0 mg/kg/injection, schedule: Q04DX003 (ip), vehicle: other 150 % of control and 181 % of control | dose: 64.0 mg/kg/injection, schedule: Q04DX003 (ip), vehicle: saline with Tween-80 151 % of control | dose: 100.0 mg/kg/injection, schedule: Q04DX002 (ip), vehicle: Klucel (hydroxypropylcellulose) (HPC) 154 % of control | dose: 128.0 mg/kg/injection, schedule: Q04DX003 (ip), vehicle: saline with Tween-80 166 % of control | dose: 128.0 mg/kg/injection, schedule: Q08DX002 (ip), vehicle: saline with Tween-80 155 % of control | dose: 256.0 mg/kg/injection, schedule: Q01DX001 (ip), vehicle: saline with Tween-80 161 % of control | dose: 256.0 mg/kg/injection, schedule: Q08DX002 (ip), vehicle: saline with Tween-80 160 % of control
